The values below come from US20110081348A1, “FUNGAL SIGNALLING AND METABOLIC ENZYMES” (priority 2004, published 2011).

A word on the IC50: it is the concentration that inhibits the measured activity by half.

This experiment deals with recombinant truncated ILV34 (Aspergillus fumigatus, UniProt Q4X099). The experiment in a line: biochemical.
Sequence of recombinant truncated ILV34 (Q4X099 30-606): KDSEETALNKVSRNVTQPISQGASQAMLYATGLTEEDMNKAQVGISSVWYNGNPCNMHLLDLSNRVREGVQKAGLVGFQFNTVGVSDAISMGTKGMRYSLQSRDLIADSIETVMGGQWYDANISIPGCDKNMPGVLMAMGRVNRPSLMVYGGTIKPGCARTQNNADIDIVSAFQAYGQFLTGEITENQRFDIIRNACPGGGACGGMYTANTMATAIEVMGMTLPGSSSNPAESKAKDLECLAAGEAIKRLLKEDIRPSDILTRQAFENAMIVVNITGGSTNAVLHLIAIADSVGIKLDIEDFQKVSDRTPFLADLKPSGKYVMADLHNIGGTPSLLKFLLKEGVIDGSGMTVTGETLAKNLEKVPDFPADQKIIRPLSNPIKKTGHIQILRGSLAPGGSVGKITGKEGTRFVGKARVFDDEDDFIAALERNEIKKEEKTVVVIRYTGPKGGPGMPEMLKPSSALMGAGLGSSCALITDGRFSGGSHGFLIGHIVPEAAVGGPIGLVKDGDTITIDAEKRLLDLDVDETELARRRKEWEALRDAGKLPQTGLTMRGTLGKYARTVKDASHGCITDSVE

Procedure: The assay for ILV34 is based upon the ability of this enzyme to dehydrate dihydroxyacid substrates to a keto acid. […] The appearance of the keto acid product can be monitored directly at 240 nm; alternatively it can be reacted with semicarbazide and sodium acetate and monitored at 250 nm.
Assays were carried out in 96- or 384-well plates. […] Samples were incubated at room temperature and at suitable intervals the reaction was stopped and developed by the addition of 25 p. 1 semicarbazide solution (1.26% w/v semicarbazide in 1.89% w/v sodium acetate solution). The samples were incubated for 15 mins after the final semicarbazide/sodium acetate addition and then read at 250 nm.

`CC(C)C(O)C(=O)O` (stereo not shown) [2-hydroxy-3-methylbutyric acid]: the IC50 was ~10 mM.
